Data from publication PMC4279137 (Pharmaceutics, 2014).
Read-outs that look alike come from different tables or passages of the source.

Experiments:
OATP1B3 [1] = molecular target: T1, OATP1B3 (Homo sapiens, UniProt Q9NPD5); parameters: method as in PMID 23219525; conditions: HEK-OATP1B3 cells; read-out: IC50 OATP1B3 inhibition, control compound; cited from earlier work
T1 construct: expressed in transfected cells; host or cells: HEK293 (HEK-OATP1B3)

OATP1B1 [2] = molecular target: T2, OATP1B1 (Homo sapiens, UniProt Q9Y6L6); parameters: method as in PMID 23219525; conditions: HEK-OATP1B1 cells; read-out: IC50 OATP1B1 inhibition, control compound; cited from earlier work
T2 construct: expressed in transfected cells; host or cells: HEK293 (HEK-OATP1B1)
T2 sequence (Q9Y6L6 whole entry): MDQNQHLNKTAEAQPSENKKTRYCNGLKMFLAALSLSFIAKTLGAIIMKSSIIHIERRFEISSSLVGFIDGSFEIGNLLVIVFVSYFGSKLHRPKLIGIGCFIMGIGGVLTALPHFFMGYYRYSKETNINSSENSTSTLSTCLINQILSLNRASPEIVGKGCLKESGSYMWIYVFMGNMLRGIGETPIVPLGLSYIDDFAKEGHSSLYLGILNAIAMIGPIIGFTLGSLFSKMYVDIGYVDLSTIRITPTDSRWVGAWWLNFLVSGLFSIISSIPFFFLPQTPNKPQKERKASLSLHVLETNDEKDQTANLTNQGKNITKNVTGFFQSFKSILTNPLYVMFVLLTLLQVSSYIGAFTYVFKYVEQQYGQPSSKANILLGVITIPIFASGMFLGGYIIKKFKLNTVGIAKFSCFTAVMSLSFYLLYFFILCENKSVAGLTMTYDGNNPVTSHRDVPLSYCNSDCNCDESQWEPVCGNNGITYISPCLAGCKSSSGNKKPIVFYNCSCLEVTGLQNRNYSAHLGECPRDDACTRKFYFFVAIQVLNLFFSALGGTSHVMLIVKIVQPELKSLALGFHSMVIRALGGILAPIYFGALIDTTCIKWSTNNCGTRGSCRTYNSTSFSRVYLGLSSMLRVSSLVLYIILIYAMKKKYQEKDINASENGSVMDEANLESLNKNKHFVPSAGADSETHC

BCRP = molecular target: T3, BCRP (Homo sapiens, UniProt Q9UNQ0); parameters: method as in PMID 20222053; conditions: MDCKII-BCRP cells; read-out: IC50 BCRP inhibition, control compound; cited from earlier work
T3 construct: expressed in transfected cells; host or cells: MDCKII-BCRP (Madin-Darby canine kidney cells)
T3 sequence (Q9UNQ0 whole entry): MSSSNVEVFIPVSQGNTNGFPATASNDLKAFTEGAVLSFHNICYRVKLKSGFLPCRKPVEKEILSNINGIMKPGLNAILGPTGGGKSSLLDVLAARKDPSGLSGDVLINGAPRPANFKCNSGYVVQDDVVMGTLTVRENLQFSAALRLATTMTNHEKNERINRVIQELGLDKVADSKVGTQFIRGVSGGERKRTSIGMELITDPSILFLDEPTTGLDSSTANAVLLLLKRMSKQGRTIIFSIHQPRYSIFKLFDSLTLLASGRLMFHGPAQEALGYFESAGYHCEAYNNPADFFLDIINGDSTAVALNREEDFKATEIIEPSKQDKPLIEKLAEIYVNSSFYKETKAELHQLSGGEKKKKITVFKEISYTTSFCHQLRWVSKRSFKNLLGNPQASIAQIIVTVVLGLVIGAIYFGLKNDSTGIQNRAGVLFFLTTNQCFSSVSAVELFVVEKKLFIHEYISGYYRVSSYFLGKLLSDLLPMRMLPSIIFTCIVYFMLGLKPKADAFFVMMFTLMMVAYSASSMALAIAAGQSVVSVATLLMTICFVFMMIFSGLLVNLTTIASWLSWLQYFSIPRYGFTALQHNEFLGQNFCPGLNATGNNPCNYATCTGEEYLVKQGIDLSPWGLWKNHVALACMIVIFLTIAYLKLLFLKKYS

CYP2C19 [3] = molecular target: T4, CYP2C19 (Homo sapiens, UniProt P33261); experiment: CYP2C19/CEC High Throughput Inhibitor Screening Kit; assay type: biochemical
T4 construct: purchased Becton Dickinson Biosciences, Heidelberg, Germany
T4 sequence (P33261 whole entry): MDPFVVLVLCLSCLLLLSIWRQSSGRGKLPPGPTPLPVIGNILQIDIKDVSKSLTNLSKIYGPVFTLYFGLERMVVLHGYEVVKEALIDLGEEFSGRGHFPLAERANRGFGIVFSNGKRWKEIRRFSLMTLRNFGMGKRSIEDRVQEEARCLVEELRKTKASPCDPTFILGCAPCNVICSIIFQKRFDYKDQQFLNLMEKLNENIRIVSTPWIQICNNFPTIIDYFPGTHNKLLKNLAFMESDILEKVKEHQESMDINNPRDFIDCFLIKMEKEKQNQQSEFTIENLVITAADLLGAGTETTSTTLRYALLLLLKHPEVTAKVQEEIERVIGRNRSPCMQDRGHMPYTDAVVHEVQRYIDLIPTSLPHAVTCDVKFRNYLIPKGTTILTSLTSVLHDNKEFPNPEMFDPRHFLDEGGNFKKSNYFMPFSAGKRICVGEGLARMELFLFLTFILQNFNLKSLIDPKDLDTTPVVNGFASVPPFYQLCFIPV
Procedure: (§1) Inhibition studies were performed with the CYP2D6/AMMC, the CYP2C19/CEC, and the CYP3A4/BFC High Throughput Inhibitor Screening Kit (Becton Dickinson Biosciences, Heidelberg, Germany) according to the manufacturer’s instructions. The Screening Kits contain the respective recombinant CYP and fluorogenic substrates, which are blocked dyes yielding minimal fluorescence signal until cleaved by the enzyme. […] Eight concentrations (9 nM–20 µM) were tested and the experiment was conducted in triplicate.

CYP3A4 [4] = molecular target: CYP3A4 (Homo sapiens, UniProt P08684); experiment: in vitro
CYP3A4 (Homo sapiens, UniProt P08684), sequence (P08684 whole entry): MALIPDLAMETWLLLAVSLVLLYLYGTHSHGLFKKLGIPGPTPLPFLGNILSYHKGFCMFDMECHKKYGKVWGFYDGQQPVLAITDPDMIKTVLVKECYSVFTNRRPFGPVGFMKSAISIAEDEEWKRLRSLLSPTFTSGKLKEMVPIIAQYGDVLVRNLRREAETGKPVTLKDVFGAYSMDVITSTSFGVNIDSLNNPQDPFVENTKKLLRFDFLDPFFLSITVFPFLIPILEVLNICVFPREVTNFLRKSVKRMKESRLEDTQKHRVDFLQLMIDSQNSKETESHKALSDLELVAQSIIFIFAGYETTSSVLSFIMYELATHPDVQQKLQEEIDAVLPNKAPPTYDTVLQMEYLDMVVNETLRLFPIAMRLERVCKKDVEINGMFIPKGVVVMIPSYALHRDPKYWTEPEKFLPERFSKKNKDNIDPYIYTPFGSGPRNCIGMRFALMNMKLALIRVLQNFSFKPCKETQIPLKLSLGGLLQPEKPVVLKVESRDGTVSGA
Procedure: as §1

CYP2D6 = molecular target: T5, CYP2D6 (Homo sapiens, UniProt P10635); experiment: CYP2D6/AMMC High Throughput Inhibitor Screening Kit; assay type: biochemical; conditions: tested up to 20 µM
T5 construct: purchased Becton Dickinson Biosciences, Heidelberg, Germany
T5 sequence (P10635 whole entry): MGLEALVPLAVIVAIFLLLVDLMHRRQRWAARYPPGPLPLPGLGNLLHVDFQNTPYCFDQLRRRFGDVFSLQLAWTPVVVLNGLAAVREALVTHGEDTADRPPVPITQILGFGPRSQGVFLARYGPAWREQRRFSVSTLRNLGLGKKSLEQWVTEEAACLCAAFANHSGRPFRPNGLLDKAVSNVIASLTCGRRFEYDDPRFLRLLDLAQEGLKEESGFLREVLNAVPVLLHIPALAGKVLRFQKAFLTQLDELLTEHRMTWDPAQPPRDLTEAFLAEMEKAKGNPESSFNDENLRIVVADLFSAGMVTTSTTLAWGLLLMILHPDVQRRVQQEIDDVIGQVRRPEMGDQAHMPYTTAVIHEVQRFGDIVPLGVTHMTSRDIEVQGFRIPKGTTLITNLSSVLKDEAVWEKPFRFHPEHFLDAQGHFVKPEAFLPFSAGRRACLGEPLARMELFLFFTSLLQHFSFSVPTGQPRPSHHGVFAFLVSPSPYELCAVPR
Procedure: as §1

[5] = Growth inhibition assay in MDCKII-MDR1 cells; assay type: cell-based, canine; conditions: dog
LS180 cells = experiment: Growth inhibition assay (crystal violet staining) in LS180 cells; assay type: cell-based; conditions: Homo sapiens, 48 h, read-out: IC20 for proliferation inhibition
Procedure: The human colon adenocarcinoma cell line LS180 (available at ATCC, Manassas, VA, USA) was used for induction experiments as a surrogate for the intestine being a major site of drug interactions and being an ideal model for investigating pregnane X receptor (PXR) and aryl hydrocarbon receptor (AhR) mediated induction. Cells were cultured under standard cell culture conditions with Dulbecco’s Modified Eagle’s Medium (DMEM) supplemented with 10% fetal calf serum, 2 mM glutamine, 100 U/mL penicillin, 100 µg/mL streptomycin sulphate, and 0.1 mM nonessential amino acids.
Growth inhibition assays in LS180 cells were conducted to determine suitable maximum concentrations for the induction assay without profound antiproliferative effects. Proliferation was quantified by crystal violet staining as described previously. […] Absorption was measured at 555 nm excitation. Proliferation was expressed as proliferation index, which was calculated as the absorption intensity of the test well in percentage points relative to zero proliferation (absorption of wells containing only medium set to 0%) and native proliferation (absorption intensity of untreated control cells set to 100%). […] Concentration-response curves and IC20 values were calculated by GraphPad Prism version 5.02 (GraphPad Software Inc., La Jolla, CA, USA) according to a sigmoid Emax model.

CYP1A2 = experiment: Induction assay, mRNA by real-time RT-PCR in LS180 cells: CYP1A2; assay type: cell-based, human
Procedure: (§2) The human colon adenocarcinoma cell line LS180 (available at ATCC, Manassas, VA, USA) was used for induction experiments as a surrogate for the intestine being a major site of drug interactions and being an ideal model for investigating PXR and AhR mediated induction. Cells were cultured as described previously. For the induction experiments, LS180 cells were seeded in 75 cm^2 culturing flasks and incubated for three days. […] Rifampicin (20 µM) served as a positive control and culture medium with 0.02% DMSO as a negative control. For induction of CYP1A1 and CYP1A2, 5 nM TCDD was used as a positive control. All incubation solutions were adjusted to 0.02% DMSO. […]
(§3) RNA was isolated using the RNeasy Mini-Kit and cDNA was synthesised with the RevertAid™ H Minus First Strand cDNA Synthesis Kit according to the manufacturer’s instructions. mRNA expression was quantified by real-time RT-PCR with the LightCycler® 480 (Roche Applied Science, Mannheim, Germany) as described previously. […] Data were evaluated by calibrator-normalised relative quantification with efficiency correction using the LightCycler® 480 software version 1.5 (Roche Applied Science, Mannheim, Germany). The software calculated the relative amount of the target gene and the reference gene (G6PDH) based on the crossing points. Results were expressed as the target/reference ratio divided by the target/reference ratio of the calibrator. […]

NR1I2 = experiment: Induction assay, mRNA by real-time RT-PCR in LS180 cells: NR1I2; assay type: cell-based, human; conditions: four days, at higher concentrations
Procedure: as §2, §3

MDCKII = experiment: Growth inhibition assay in MDCKII cells; assay type: cell-based, canine; conditions: Canis lupus familiaris, MDCK-II; MDCKII parental cells
SLCO1B1 = experiment: Induction assay, mRNA by real-time RT-PCR in LS180 cells: SLCO1B1; assay type: cell-based, human; conditions: four days, at higher concentrations
Procedure: as §2, §3

ABCB1 = experiment: Induction assay, mRNA by real-time RT-PCR in LS180 cells: ABCB1; assay type: cell-based, human; conditions: four days, at higher concentrations
Procedure: as §2, §3

OATP1B1 [6] = molecular target: T2, OATP1B1; experiment: OATP inhibition assay (8-FcA flow cytometry uptake assay) in HEK-OATP1B1 cells; assay type: cell-based; conditions: 8-fluorescein-cAMP uptake
Procedure: (§4) For assessing human organic antion transporting polypeptides (OATPs = solute carriers of organic anions (SLCOs)) inhibition, the human embryonic kidney cell line HEK293 stably transfected with OATP1B1 (HEK-OATP1B1), OATP1B3 (HEK-OATP1B3), or the empty control vector (HEK293-VC G418) were used. Cells were cultured under standard cell culture conditions with DMEM supplemented with 10% FCS, 2 mM glutamine, 100 U/mL penicillin, 100 µg/mL streptomycin sulphate, and 800 µg/mL G418. Cells were kindly provided by Dr. D. Keppler (German Cancer Research Centre, Heidelberg, Germany).
(§5) Inhibition of OATP1B1 and OATP1B3 was analysed by flow cytometric uptake of the fluorescent 8-FcA as described previously using HEK-OATP1B1, OATP1B3, and HEK293-VC G418 (as a control). […] Subsequently, cells were washed once with 1 mL ice-cold incubation medium and resuspended in 500 µL incubation medium and kept on ice until flow cytometry. Intracellular fluorescence was analysed in a Becton Dickinson LSRII flow cytometer (Becton Dickinson, Heidelberg, Germany) with a solid state coherent sapphire blue laser and a 530 bandpass filter for 8-FcA.
(§6) In each sample 30,000 cells were counted. Cell debris was eliminated by gating the viable cells in the forward versus side scatter. […] Each experiment was performed at least in triplicate.

UGT2B7 = experiment: Induction assay, mRNA by real-time RT-PCR in LS180 cells: UGT2B7; assay type: cell-based, human; conditions: four days, at higher concentrations
Procedure: as §2, §3

ABCC2 = experiment: Induction assay, mRNA by real-time RT-PCR in LS180 cells: ABCC2; assay type: cell-based, human; conditions: four days, at higher concentrations
Procedure: as §2, §3

AhR = molecular target: T6, AhR (Homo sapiens, UniProt P35869); experiment: AhR reporter gene assay in AZ-AhR cells; assay type: cell-based; conditions: 24 h, luciferase reporter, read-out: EC50 activation of AhR activity
T6 construct: endogenous in cells; host or cells: AZ-AhR (HepG2)
T6 sequence (P35869 11-848): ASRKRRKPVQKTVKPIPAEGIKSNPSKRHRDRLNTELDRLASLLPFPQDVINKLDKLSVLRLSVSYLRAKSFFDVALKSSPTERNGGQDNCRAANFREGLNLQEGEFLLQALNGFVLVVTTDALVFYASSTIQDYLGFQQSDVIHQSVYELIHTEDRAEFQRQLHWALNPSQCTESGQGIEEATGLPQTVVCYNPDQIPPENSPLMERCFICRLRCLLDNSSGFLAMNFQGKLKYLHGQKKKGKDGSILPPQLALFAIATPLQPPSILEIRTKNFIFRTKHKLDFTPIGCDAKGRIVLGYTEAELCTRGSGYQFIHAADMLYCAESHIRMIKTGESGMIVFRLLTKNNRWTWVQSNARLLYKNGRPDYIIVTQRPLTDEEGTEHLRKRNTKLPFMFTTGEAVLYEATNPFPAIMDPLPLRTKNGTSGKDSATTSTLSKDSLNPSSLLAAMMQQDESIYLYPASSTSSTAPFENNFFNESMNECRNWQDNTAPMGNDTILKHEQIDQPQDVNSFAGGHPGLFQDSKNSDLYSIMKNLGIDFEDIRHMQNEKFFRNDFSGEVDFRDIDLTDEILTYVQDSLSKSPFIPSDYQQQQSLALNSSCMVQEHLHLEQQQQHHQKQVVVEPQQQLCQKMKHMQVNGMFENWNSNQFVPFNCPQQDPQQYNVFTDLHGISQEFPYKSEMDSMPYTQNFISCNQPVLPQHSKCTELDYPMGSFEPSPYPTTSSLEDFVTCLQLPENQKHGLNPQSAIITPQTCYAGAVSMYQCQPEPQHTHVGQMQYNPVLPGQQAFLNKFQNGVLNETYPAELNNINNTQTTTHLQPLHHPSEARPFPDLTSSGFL
Procedure: Human hepatoma HepG2 cells stably transfected with a construct containing several AhR binding sites upstream of a luciferase reporter gene were used for the AhR reporter gene assays as described previously.
In total, 60,000 AZ-AhR cells were seeded into each well of 96-well plates with clear bottom and clear lid for luminometry. […] The assay was performed with the Steady-Glo™ Luciferase Assay System according to the manufacturer’s instructions. Drug-induced increases of AhR receptor activity were normalised to activity of non-drug treated controls set to 1 (=100%).

[7] = Stock solution in DMSO (highest possible solution); assay type: physicochemical
ABCC1 = experiment: Induction assay, mRNA by real-time RT-PCR in LS180 cells: ABCC1; assay type: cell-based, human; conditions: 0.1-5 µM, four days
Procedure: as §2, §3

ABCG2 = experiment: Induction assay, mRNA by real-time RT-PCR in LS180 cells: ABCG2; assay type: cell-based, human; conditions: 0.1-5 µM, four days
Procedure: as §2, §3

CYP2C19 [8] = experiment: Induction assay, mRNA by real-time RT-PCR in LS180 cells: CYP2C19; assay type: cell-based, human; conditions: 0.1-5 µM, four days
Procedure: as §2, §3

UGT1A3 = experiment: Induction assay, mRNA by real-time RT-PCR in LS180 cells: UGT1A3; assay type: cell-based, human; conditions: four days, at higher concentrations
Procedure: as §2, §3

ABCC3 = experiment: Induction assay, mRNA by real-time RT-PCR in LS180 cells: ABCC3; assay type: cell-based, human; conditions: 0.1-5 µM, four days
Procedure: as §2, §3

P-gp = experiment: Western blot analysis of P-gp expression in LS180 cells; assay type: cell-based, human; conditions: four days
Procedure: The human colon adenocarcinoma cell line LS180 (available at ATCC, Manassas, VA, USA) was used for induction experiments as a surrogate for the intestine being a major site of drug interactions and being an ideal model for investigating PXR and AhR mediated induction. Cells were cultured as described previously. For the induction experiments, LS180 cells were seeded in 75 cm^2 culturing flasks and incubated for three days. […] Rifampicin (20 µM) served as a positive control and culture medium with 0.02% DMSO as a negative control. For induction of CYP1A1 and CYP1A2, 5 nM TCDD was used as a positive control. All incubation solutions were adjusted to 0.02% DMSO. After harvesting, cells were splitted for RNA and protein extraction.

[9] = Growth inhibition assay in MDCKII-BCRP cells; assay type: cell-based, canine; conditions: dog
SLCO2B1 = experiment: Induction assay, mRNA by real-time RT-PCR in LS180 cells: SLCO2B1; assay type: cell-based, human; conditions: four days, at higher concentrations
Procedure: as §2, §3

CYP3A4 [10] = experiment: Induction assay, mRNA by real-time RT-PCR in LS180 cells: CYP3A4; assay type: cell-based, human; conditions: 0.1-5 µM, four days
Procedure: as §2, §3

OATP1B3 [11] = molecular target: T1, OATP1B3; experiment: OATP inhibition assay (8-FcA flow cytometry uptake assay) in HEK-OATP1B3 cells; assay type: cell-based; conditions: 8-fluorescein-cAMP uptake
Procedure: as §4, §5, §6

CYP1A1 = experiment: Induction assay, mRNA by real-time RT-PCR in LS180 cells: CYP1A1; assay type: cell-based, human
Procedure: as §2, §3

T1 sequence (Q9NPD5 whole entry): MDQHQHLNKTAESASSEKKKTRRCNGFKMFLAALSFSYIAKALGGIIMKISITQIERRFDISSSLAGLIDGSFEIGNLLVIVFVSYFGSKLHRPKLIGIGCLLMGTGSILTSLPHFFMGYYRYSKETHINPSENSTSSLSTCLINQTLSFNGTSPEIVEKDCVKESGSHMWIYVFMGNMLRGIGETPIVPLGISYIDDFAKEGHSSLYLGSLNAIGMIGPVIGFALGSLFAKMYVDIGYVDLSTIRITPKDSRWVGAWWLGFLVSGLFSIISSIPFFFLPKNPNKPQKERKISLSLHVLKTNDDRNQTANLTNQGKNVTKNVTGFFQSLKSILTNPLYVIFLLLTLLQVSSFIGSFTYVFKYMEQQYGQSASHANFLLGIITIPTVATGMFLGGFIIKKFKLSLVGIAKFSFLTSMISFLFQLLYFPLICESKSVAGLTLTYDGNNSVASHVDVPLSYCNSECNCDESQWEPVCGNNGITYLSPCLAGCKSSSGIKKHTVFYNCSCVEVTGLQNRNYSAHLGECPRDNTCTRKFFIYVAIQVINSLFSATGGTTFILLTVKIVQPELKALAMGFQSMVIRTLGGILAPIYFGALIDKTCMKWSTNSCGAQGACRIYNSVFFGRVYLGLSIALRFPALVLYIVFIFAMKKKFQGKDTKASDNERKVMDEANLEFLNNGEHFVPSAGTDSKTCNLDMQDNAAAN

## CO[C@H]1/C=C/O[C@@]2(C)Oc3c(C)c(O)c4c(O)c(c(/C=N/N5CCN(C)CC5)c(O)c4c3C2=O)NC(=O)/C(C)=C\C=C\[C@H](C)[C@H](O)[C@@H](C)[C@@H](O)[C@@H](C)[C@H](OC(C)=O)[C@@H]1C [Rifampicin]
OATP1B3 [1]
  IC50: 2.1 ± 1 µM
OATP1B1 [2]
  IC50: 2.4 ± 0.9 µM

## COc1ccc2c3c([nH]c2c1)[C@H](C=C(C)C)N1C(=O)[C@@H]2CCCN2C(=O)[C@@H]1C3 [Fumitremorgin C]
BCRP
  IC50: 0.7 ± 0.3 µM

## COc1ccc2[nH]c([S+]([O-])Cc3ncc(C)c(OC)c3C)nc2c1 (stereo not drawn) [omeprazole, Omeprazole]
CYP2C19 [3]; control compound, read-out: IC50 CYP2C19 inhibition
  IC50: 0.8 ± 0.2 µM

## CN1CCN(c2ccc3nc(-c4c(N)c5c(F)cccc5[nH]c4=O)[nH]c3c2)CC1 [Dovitinib]
CYP3A4 [4]
  inhibition at 20 µM: ~30%
CYP2D6
  CYP2D6 inhibition: not inhibited at all
[5]
  IC50 at 48 h: 18.3 ± 4.1 µM
LS180 cells
  IC20: 4.9 ± 2.5 µM
CYP1A2; 0.1-5 µM, four days
  mRNA expression of CYP1A2: induced
CYP1A2; Figure 3
  induction of CYP1A2 (mRNA): approximately 10 fold
NR1I2
  mRNA expression of NR1I2: reduced
MDCKII
  IC50: 20 ± 2.9 µM
SLCO1B1
  mRNA expression of SLCO1B1: reduced
ABCB1
  mRNA expression of ABCB1: reduced
CYP2C19 [3]; human, recombinant CYP2C19, probe CEC, at 20 µM
  inhibition at 20 µM: ~50%
OATP1B1 [6]
  IC50: 76.5 ± 28.9 µM
UGT2B7
  mRNA expression of UGT2B7: reduced
ABCC2
  mRNA expression of ABCC2: reduced
AhR
  EC50: 0.609 ± 0.282 µM
[7]
  stock solution, highest possible solution: 10 mM
ABCC1
  mRNA expression of ABCC1: no influence
ABCG2
  mRNA expression of ABCG2: induced
CYP2C19 [8]
  mRNA expression of CYP2C19: no influence
UGT1A3
  mRNA expression of UGT1A3: reduced
ABCC3
  mRNA expression of ABCC3: induced
P-gp; at 0.1 and 0.5 µM
  P-gp protein expression (western blot): small increase in P-gp expression
P-gp; at higher dovitinib concentrations
  P-gp protein expression (western blot): suppression of P-gp protein expression
[9]
  IC50 at 48 h: 21.4 ± 3.6 µM
SLCO2B1
  mRNA expression of SLCO2B1: reduced
CYP3A4 [10]
  mRNA expression of CYP3A4: no influence
OATP1B3 [11]
  IC50: > 100 µM
CYP1A1; 0.1-5 µM, four days
  mRNA expression of CYP1A1: induced
CYP1A1; Figure 3
  induction of CYP1A1 (mRNA): approximately 10 fold
